Data taken from article PMC6591635, “Advancing the Therapeutic Potential of Indoleamides for Tuberculosis” (Antimicrobial Agents and Chemotherapy, 2019).
Converted amounts (≈) assume the structure as drawn. “And” between values parts separate entries of the source, which are not always exact repeats. Equal values may be shown once. Read-outs that look alike come from different tables or passages of the source. Marks after values point to notes of the source that are not given here.

What was measured:
M. tuberculosis H37Rv [1] = assay: animal or person; assay type: in vivo, Mycobacterium tuberculosis; details: for Lung CFU burden compared with untreated controls: 10 mg/kg, 4 weeks of treatment, P < 0.05; for ED50: Mycobacterium tuberculosis, H37RV, in Mus musculus, inhaled or nasal, 672 h, read-out: 50% effective dose (ED50)
M. tuberculosis H37Rv [2] = test system: M. tuberculosis H37Rv; design: method as in PMID 27275668; details: 4 weeks of treatment, 0.5% (wt/vol) CMC formulation, previous study; cited from earlier work
[3] = Single dose pharmacokinetic study in mice (oral formulations, i.v.); assay type: in vivo, Swiss Webster mice; details: mouse
Description: To enhance oral bioavailability, we developed a novel formulation for compound 2 in propylene glycol (PG):Tween 80 (4:1, vol/vol). We compared the bioavailability of this new formulation with a previously reported formulation using 0.5% (wt/vol) carboxymethyl cellulose (CMC) ([19]). For oral (p.o.) administration, compound 2 was prepared in either formulation at 1 mg/ml of homogeneous suspension to achieve a 10-mg/kg dose level. For intravenous (i.v.) injection, a 0.22-mg/ml solution of compound 2 in PG:Tween 80:5% glucose at 20:10:70 (vol/vol/vol) was used. Five-week-old male Swiss Webster mice were randomly assigned to time points (3 mice per arm per time point). Serial blood samples of approximately 30 μl were collected at 0.25, 0.5, 1, 2, 4, 8, and 24 h after a single p.o. dose; and at 0.083, 0.33, 1, 2, 4, 8, and 24 h after a single i.v. dose. Plasma was harvested and stored at −80°C until analysis. Plasma samples were analyzed for compound 2 using liquid chromatography-tandem mass spectrometry (LC-MS/MS), with a limit of quantification of 1.05 ng/ml. Estimation of pharmacokinetic parameters was conducted using noncompartmental analysis with WinNonlin software (Phoenix 6.3).

M. tuberculosis H37Rv [4] = details: M. tuberculosis; stated without method in this paper; cited from earlier work
in vitro = details: mouse, plasma
M. tuberculosis H37Rv [5] = assay type: in vivo, Mycobacterium tuberculosis
M. tuberculosis H37Rv [6] = assay: Field emission scanning electron microscopy of cell morphology (dimples per 100 bacilli); assay type: cell-based, Mycobacterium tuberculosis; details: 24 hours of treatment, FESEM; for Cell morphology (dimples per 100 cells, deformed bacilli): 10× MIC
[7] = male, Swiss Webster, in vivo, po, 10 mg/kg
[8] = 50 mg/kg, 4 weeks of treatment, PG:Tween 80 formulation

Structure (SMILES): CC1(C)CCC(NC(=O)c2cc3c(Cl)cc(Cl)cc3[nH]2)CC1 [compound 3]
- Lung CFU burden compared with untreated controls (M. tuberculosis H37Rv [1]): did not
- ED50 (M. tuberculosis H37Rv [1]): 43 mg/kg
- Lung CFU, D28 (M. tuberculosis H37Rv [1]; in vivo): 7.05±0.09 and 6.99±0.19 and 5.66±0.14 and 4.15±0.06 and 3.65±0.11

Structure (SMILES): C[C@@H]1[C@H]2C[C@@H](C[C@H]1NC(=O)c1cc3c(F)cc(F)cc3[nH]1)C2(C)C [compound 2]
- Lung CFU burden compared with untreated controls (M. tuberculosis H37Rv [1]): significantly reduced the lung CFU burden
- ED50 (M. tuberculosis H37Rv [1]): 28.9 mg/kg
- Lung CFU counts higher than positive control ethambutol at 100 mg/kg (M. tuberculosis H37Rv [2]): 2.0 log
- F (relative bioavailability) ([3]; 10 mg/kg p.o., PG:Tween 80 formulation (suspension)): 96%
- F ([3]; Swiss Webster, in vivo): 22%
- F (relative bioavailability) ([3]; male, Swiss Webster, in vivo): 22%
- Time for which plasma concentration of free compound exceeded the MIC postdose ([3]; male, Swiss Webster, in vivo): 24 h
- Increase in relative bioavailability compared with the CMC formulation [3, 7]: 74%
- Tmax [3, 7]: 1.00 ± 0.00 h
- Tmax ([3]; male, Swiss Webster, in vivo, po, 10 mg/kg, Tmax): 1.25 ± 1.06 h
- MIC (M. tuberculosis H37Rv [4]): 4 ng/mL (≈ 0.012 µM)
- fraction unbound (in vitro): 0.032
- Lung CFU count lower than that of positive control ethambutol at 100 mg/kg (M. tuberculosis H37Rv [5]; [8]): 1.2 log
- Mean lung CFU count lower than that of untreated controls (M. tuberculosis H37Rv [5]; [8]): 4.66 log
- Lung CFU counts, Week 2 (M. tuberculosis H37Rv [5]; […], compound 2 in PG:Tween 80): 3.40 (NA)^b^,^c
- Lung CFU counts, Week 4 (M. tuberculosis H37Rv [5]; […], compound 2 in PG:Tween 80): 2.82 (0.34)^b

Structure (SMILES): CC[C@@H](CO)NCCN[C@@H](CC)CO [ethambutol, reference compound]
- Lung CFU counts, Week 2 (M. tuberculosis H37Rv [5]; […], compound 2 in PG:Tween 80): 4.34 (0.25)^b
- Lung CFU counts, Week 4 (M. tuberculosis H37Rv [5]; […], compound 2 in PG:Tween 80): 5.60 (0.24)^b
- Lung CFU counts, Week 2 (M. tuberculosis H37Rv [5]; in vivo): 3.56 (0.26)^b
- Lung CFU counts, Week 4 (M. tuberculosis H37Rv [5]; in vivo): 4.02 (0.28)^b

Structure (SMILES): Cc1cc(C)c2cc(C(=O)NC3CCCCCCC3)[nH]c2c1 [compound 1]
- Cell morphology (unhealthy cells: dimples at poles and septum, wrinkled cell surface) versus untreated (M. tuberculosis H37Rv [6]; 1× and 10× MIC): significantly higher number of unhealthy cells
- Cell morphology (dimples per 100 cells, deformed bacilli) (M. tuberculosis H37Rv [6]): higher rate of deformed bacilli than 1× MIC

Structure (SMILES): NNC(=O)c1ccncc1 [isoniazid, reference compound]
- Cell morphology (dimples per 100 cells, deformed bacilli) (M. tuberculosis H37Rv [6]): more dimples per 100 cells than no treatment, but the difference did not reach statistical significance
